pIC50: −log10 of the molar value. Like-named read-outs stand apart in the source and are kept apart here.
How the values were obtained:
[1] = tested on: MYB mRNA; assay: Splicing RT-qPCR assay, MYB canonical (CJ) and alternative (AJ) junction mRNA; assay type: cell-based; conditions: Homo sapiens, A673 or K562 cells, 24 hours
Protocol: (§1) Compounds described herein were used to modulate RNA transcript abundance in cells. The expression of a target mRNA was measured by detecting the formation of an exon-exon junction in the canonical transcript (CJ). A compound mediated exon-inclusion event was detected by observing an increase in formation of a new junction with an alternative exon (AJ). Real-time qPCR assays were used to detect these splicing switches and interrogate the potency of various compounds towards different target genes. A high-throughput real time quantitative PCR (RT-qPCR) assay was developed to measure these two isoforms of the mRNA (CJ and AJ) for exemplary genes, such as HTT, SMN2, and MYB, together with a control housekeeping gene, GAPDH or GUSB or PPIA, used for normalization. Briefly, the A673 or K562 cell line was treated with various compounds described herein (e.g., compounds of Formula (I), (I), or (III)). After treatment, the levels of the HTT, MYB, or SMN2 mRNA targets were determined from each sample of cell lysate by cDNA synthesis followed by qPCR.
(§2) • Cells-to-CT 1-step kit: ThermoFisher A25602, Cells-to-CT lysis reagent: ThermoFisher 4391851C, TaqMan™ Fast Virus 1-Step Master Mix: ThermoFisher 4444436 • GAPDH: VIC-PL, ThermoFisher 4326317E (Assay: Hs99999905_ml)—used for K562/suspension cell lines • GUSB: VIC-PL, ThermoFisher 4326320E (Assay: Hs99999908_ml)—used for K562/suspension cell lines • PPIA: VIC-PL, ThermoFisher 4326316E (Assay: Hs99999904_ml)—used for A673/adherent cell lines
(§3) The A673 cell line was cultured in DMEM with 10% FBS. Cells were diluted with full growth media and plated in a 96-well plate (15,000 cells in 100 ul media per well). The plate was incubated at 37° C. with 5% CO2 for 24 hours to allow cells to adhere. An 11-point 3-fold serial dilution of the compounds was made in DMSO then diluted in media in an intermediate plate. Compounds were transferred from the intermediate plate to the cell plate with the top dose at a final concentration of 10 uM in the well. Final DMSO concentration was kept at or below 0.25%. The cell plate was returned to the incubator at 37° C. with 5% CO2 for an additional 24 hours.
(§4) The K562 cell line was cultured in IMDM with 10% FBS. For K562, cells were diluted with full growth media and plated in either a 96-well plate (50,000 cells in 50 uL media per well) or a 384-well plate (8,000-40,000 cells in 45 uL media per well). An 11-point 3-fold serial dilution of the compounds were made in DMSO then diluted in media in an intermediate plate. Compound was transferred from the intermediate plate to the cell plate with the top dose at a final concentration of 10 uM in the well. Final DMSO concentration was kept at or below 0.25%. Final volume was 100 uL for 96-well plate and 50 uL for 384-well plate. The cell plate was then placed in an incubator at 37° C. with 5% CO2 for 24 hours.
(§5) The cells were then gently washed with 50 uL-100 uL cold PBS before proceeding to addition of lysis buffer. 30 uL-50 uL of room temperature lysis buffer with DNAse I (and optionally RNAsin) was added to each well. Cells were shaken/mixed thoroughly at room temperature for 5-10 minutes for lysis to take place and then 3 uL-5 uL of room temperature stop solution was added and wells were shaken/mixed again. After 2-5 minutes, the cell lysate plate was transferred to ice for RT-qPCR reaction setup. The lysates could also be frozen at −80° C. for later use.
(§6) In some cases, a direct lysis buffer was used. An appropriate volume of 3×lysis buffer (10 mM Tris, 150 mM NaCl, 1.5%-2.5% Igepal and 0.1-1 U/uL RNAsin, pH 7.4) was directly added to either K562 or A673 cells in media and mixed by pipetting 3 times. The plates were then incubated at room temperature with shaking/rocking for 20-50 minutes to allow for lysis to take place. After this time, the cell lysate plate was transferred to ice to set up for the RT-qPCR reactions. The lysates could also be frozen at −80° C. for later use. […]

[2] = tested on: HTT mRNA; assay: Splicing RT-qPCR assay, HTT canonical (CJ) and alternative (AJ) junction mRNA; assay type: cell-based; conditions: Homo sapiens, A673 or K562 cells, 24 hours
Protocol: as §1, §2, §3, §4, §5, §6

[3] = tested on: HTT mRNA; assay: Gene panel canonical junction qPCR assay, HTT CJ mRNA decrease; assay type: cell-based, human
Protocol: as §1
(§7) The data analysis was performed by first determining the ΔCt vs the housekeeper gene. This ΔCt was then normalized against the DMSO control (ΔΔCt) and converted to RQ (relative quantification) using the 2^(−ΔΔCt) equation. The RQ were then converted to a percentage response by arbitrarily setting an assay window of 3.5 and 4.0 ΔCt for HTT-CJ and MYB-CJ respectively and an assay window of 9 and 3 ΔCt for HTT-AJ and MYB-AJ in 96 well format (50,000 K562 cells/well and 15,000 A673 cells per well) and an assay window of 3 and 4 ΔCt for HTT-CJ and MYB-CJ respectively and an assay window of 5 and 3 ΔCt for HTT-AJ and MYB-AJ respectively in 384 well format (8,000 K562 cells/well example). […] The percentage response was then fitted to the 4 parametric logistic equation to evaluate the concentration dependence of compound treatment. The increase in AJ mRNA is reported as AC50 (compound concentration having […] in AJ increase) while the decrease in CJ mRNA levels is reported as IC50 (compound concentration having 50) response in CJ decrease).
(§8) Additional studies were carried out for a larger panel of genes using the protocol provided above. The junction between flanking upstream and downstream exons was used to design canonical junction qPCR assays. At least one of the forward primer, reverse primer or the CY5-labeled 5′ nuclease probe (with 3′ quencher such as ZEN/Iowa Black FQ) was designed to overlap with the exon junction to capture the CJ mRNA transcript. BLAST was used to confirm the specificity of the probeset and parameters such as melting temperature, GC content, amplicon size, and primer dimer formation are considered during their design. Data for the decrease in CJ mRNA levels for four exemplary genes (HTT, SMN2, MYB, and Target C) analyzed in this panel are reported as IC50 (compound concentration having […] in CJ decrease).
(§9) A summary of the results from the panel is illustrated in Tables 5A and 51B, wherein “A” represents an IC50 of less than 100 nM; “B” represents an IC50 of between 100 nM and 1 μM; and “C” represents an IC50 of between 1 μM and 10 μM; and “D” represents an IC50 of greater than 10 μM.

[4] = tested on: SMN2 mRNA; assay: Gene panel canonical junction qPCR assay, SMN2 CJ mRNA decrease; assay type: cell-based, human
Protocol: as §1, §7, §8, §9

[5] = tested on: MYB mRNA; assay: Gene panel canonical junction qPCR assay, MYB CJ mRNA decrease; assay type: cell-based, human
Protocol: as §1, §7, §8, §9

[6] = tested on: Target C mRNA; assay: Gene panel canonical junction qPCR assay, Target C CJ mRNA decrease; assay type: cell-based; conditions: Homo sapiens, decrease in CJ mRNA levels, read-out: Target C IC50
Protocol: as §1, §7, §8, §9

[7] = decrease in canonical junction mRNA
[8] = increase in alternative junction mRNA
[9] = Homo sapiens, decrease in CJ mRNA levels, read-out: HTT IC50
[10] = Homo sapiens, decrease in CJ mRNA levels, read-out: SMN2 IC50
[11] = Homo sapiens, decrease in CJ mRNA levels, read-out: MYB IC50

| SMILES | pIC50 [3, 9] | pIC50 [4, 10] | pIC50 [5, 11] | further results |
| --- | --- | --- | --- | --- |
| Cc1cn2cc(NC(=O)c3ccc(N4CCN(C)C(C)C4)c4ccnnc34)cc(F)c2n1 (centres unmarked) [Compound 129] | – | – | – | pIC50 [1, 7]: 6.00 to 7.00; AC50 [1, 8]: 100 to 1000 nM; pIC50 [2, 7]: 5.00 to 6.00; AC50 [2, 8]: 1000 to 10000 nM; pIC50 ([3]; Homo sapiens, canonical junction qPCR, read-out: HTT IC50 (decrease in CJ mRNA levels)): 5.00 to 6.00; pIC50 ([4]; Homo sapiens, canonical junction qPCR, read-out: SMN2 IC50 (decrease in CJ mRNA levels)): > 7.00; pIC50 ([5]; Homo sapiens, canonical junction qPCR, read-out: MYB IC50 (decrease in CJ mRNA levels)): 6.00 to 7.00 |
| Cc1cn2nc(NC(=O)c3sc([C@@H]4CCN[C@H](C)C4)cc3F)cc(C)c2n1 [Compound 576] | 6.00 to 7.00 | 6.00 to 7.00 | > 7.00 | pIC50 [6]: 6.00 to 7.00 |
| Cc1cn2cc(NC(=O)c3sc([C@H]4CCN[C@@H](C)C4)cc3F)cc(F)c2n1 [Compound 590] | 6.00 to 7.00 | – | 6.00 to 7.00 | pIC50 [6]: 6.00 to 7.00 |
| COc1cc(N2CCNC(C)C2)sc1C(=O)Nc1cc(F)c2nc(C)cn2c1 (centres unmarked) [Compound 597] | < 5.00 | – | 6.00 to 7.00 | pIC50 [6]: < 5.00 |
| Cc1cn2cc(NC(=O)c3sc(N4CCNC(C)C4)cc3F)cc(F)c2n1 (centres unmarked) [Compound 601] | 5.00 to 6.00 | – | 6.00 to 7.00 | pIC50 [6]: 5.00 to 6.00 |
| CCC1CN(c2cc(F)c(C(=O)Nc3cc(F)c4nc(C)cn4c3)s2)CCN1 (centres unmarked) [Compound 603] | 5.00 to 6.00 | – | 6.00 to 7.00 | pIC50 [6]: < 5.00 |
| Cc1cn2cc(NC(=O)c3sc(N4C[C@H]5CC[C@@H](C4)N5)cc3F)cc(F)c2n1 [Compound 616] | < 5.00 | < 5.00 | 5.00 to 6.00 | – |
| Cc1cn2cc(NC(=O)c3sc(C4C[C@@H](C)N[C@@H](C)C4)cc3F)cc(F)c2n1 (some centres unmarked) [Compound 620] | 5.00 to 6.00 | 5.00 to 6.00 | 6.00 to 7.00 | – |
| Cc1nc2c(F)cc(NC(=O)c3sc(N4CCNC(C)C4)cc3F)cc2s1 (centres unmarked) [Compound 638] | < 5.00 | > 7.00 | < 5.00 | – |
| Cc1cn2cc(NC(=O)c3sc(C4CCNCC4)c(C)c3F)cc(F)c2n1 [Compound 649] | 6.00 to 7.00 | 5.00 to 6.00 | 6.00 to 7.00 | – |
| Cc1cn2cc(NC(=O)c3sc(C4CCNCC4)cc3F)cc(F)c2n1 [Compound 650] | – | – | – | pIC50 ([3]; decrease in CJ mRNA levels, read-out: HTT IC50): 5.00 to 6.00; pIC50 ([4]; decrease in CJ mRNA levels, read-out: SMN2 IC50): < 5.00; pIC50 ([5]; decrease in CJ mRNA levels, read-out: MYB IC50): 6.00 to 7.00 |
| Cc1cn2cc(NC(=O)c3sc(C4CCNCC4)cc3F)cc(Cl)c2n1 [Compound 654] | 6.00 to 7.00 | 5.00 to 6.00 | 5.00 to 6.00 | – |
| Cn1cc2ccc(NC(=O)c3sc(C4CCNCC4)cc3F)cc2n1 [Compound 655] | 6.00 to 7.00 | 5.00 to 6.00 | > 7.00 | – |
| Cn1cc2c(F)cc(NC(=O)c3sc(C4CCNCC4)cc3F)cc2n1 [Compound 656] | 6.00 to 7.00 | 5.00 to 6.00 | > 7.00 | – |
| Cc1cn2cc(NC(=O)c3cc(F)c(C4CCNCC4)s3)cc(F)c2n1 [Compound 661] | < 5.00 | – | 5.00 to 6.00 | pIC50 [6]: < 5.00 |
| Cc1cn2nc(NC(=O)c3sc(C4CCNCC4)cc3F)cc2c(C)n1 [Compound 664] | < 5.00 | < 5.00 | < 5.00 | – |
| Cc1cn2cc(NC(=O)c3cc(Cl)c(C4CCNCC4)s3)cc(F)c2n1 [Compound 666] | 5.00 to 6.00 | 5.00 to 6.00 | 6.00 to 7.00 | – |
| Cc1cn2cc(NC(=O)c3sc(C4CCNCC4)cc3F)nc2c(C)n1 [Compound 667] | < 5.00 | < 5.00 | < 5.00 | – |
| Cc1cn2cc(NC(=O)c3sc([C@@H]4CCN[C@H](C)C4)cc3F)cc(C(F)(F)F)c2n1 [Compound 668] | < 5.00 | < 5.00 | 5.00 to 6.00 | – |
| Cc1cn2cc(NC(=O)c3sc([C@H]4CCN[C@H](C)C4)cc3F)cc(C(F)(F)F)c2n1 [Compound 669] | 6.00 to 7.00 | < 5.00 | > 7.00 | – |
| Cc1cn2cc(NC(=O)c3sc(C4CCNCC4)c(C#N)c3Cl)cc(F)c2n1 [Compound 670] | 5.00 to 6.00 | < 5.00 | 6.00 to 7.00 | – |
| Cc1cn2cc(-c3sc(C(=O)NC4CCNCC4)c(Cl)c3C#N)cc(F)c2n1 [Compound 671] | 5.00 to 6.00 | < 5.00 | 6.00 to 7.00 | – |
